Two sequences from US20220033448A1, “METHODS FOR AGGREGATION OF PROTEINS” (priority 2011, published 2022) can be followed below.

Read-outs that look alike come from different tables or passages of the source. No end group written: not given here.

Series [1] has as its system Candida albicans SC5314. Put plainly: In vitro mature C. albicans biofilm formation on polystyrene (XTT reduction assay). It is filed as cell-based. The conditions noted are these: 250 μM, 50 μM and 10 μM; peptide during adhesion only or during whole biofilm development; p<0.001. Here is the method:
The initial screening and search for optimal Als3 candidate interferors was based on the C. albicans SC5314 adhesion assay on 96-well polystyrene plates upon administration of all the peptides at three different concentrations (250 μM, 50 μM and 10 μM). Based on the results obtained with this adhesion assay, we also tested the effect of peptides on mature biofilm development. The final election of the most optimal candidate interferor peptides was based on the results showing reduction in adhesion and mature biofilm formation caused by the lowest concentration of the peptide tested (10 μM or 2.5 μM).
In a next step, lower concentrations of peptide F9 (50 μM, 10 μM and 2.5 μM) were also tested. […] Both assays were performed in 96-well polystyrene plates and quantified by the XTT reduction assay (see material and methods section).
In vitro C. albicans biofilm was studied on three different types of biomaterials, namely flat bottom 96-well polystyrene plate (Greiner Bio-One, Germany), silicone (CS Hyde, USA) and polyurethane triple lumen intravenous catheters (2.4mm diameter) (Arrow International Reading, USA). […] After that, the biofilms were washed twice with 1×PBS and quantified.
The metabolic activity of Candida cells within in vitro biofilms was studied using the XTT reduction assay. […] The intensity of colorimetric change was measured by spectrophotometer (Spectra max Plus 384) at 490 nm. […]
For orientation: Formazan colour is commonly taken as a measure of viable cells.

In series [2] the test system is Candida albicans SC5314. Put plainly: C. albicans adhesion on polyurethane catheters (CFU counting). It is filed as cell-based. The conditions noted are these: 50 μM; adhesion 90 min at 37° C.; control 3.06 ±0.39. Here is the method: In vitro C. albicans biofilm was studied on three different types of biomaterials, namely flat bottom 96-well polystyrene plate (Greiner Bio-One, Germany), silicone (CS Hyde, USA) and polyurethane triple lumen intravenous catheters (2.4mm diameter) (Arrow International Reading, USA). Prior the biofilm set up, silicone was cut into small square pieces (1 cm×1 cm) and polyurethane into 1 cm pieces. Silicone or polyurethane devices were incubated in 99% FBS (F7524, Sigma) overnight at 37° C. Cells were washed and resuspended in 1 x phosphate buffered saline (PBS), pH 7.4. Candida suspension of 1×10^7 cells/ml or 5.10^4 cells/ml was prepared in RPMI1640-MOPS medium, Ssuccinate, pH 6.5 or in YNB medium, 4% D-glucose. In total, 1 ml of the cell suspension was added to the silicone discs or polyurethane catheters placed in 24 well plate and 100 μl of cell suspension was inoculated into 96-well polystyrene plate. The attachment of the cells to a substrate was achieved by incubation at 37° C., for 90 min under static conditions (period of adhesion). […] After that, the biofilms were washed twice with 1×PBS and quantified.
The amount of fungal biofilm biomass formed inside the catheter lumen of in vitro and in vivo explanted catheters was determined by colony forming units (CFU). […] CFUs were counted after two days at 37° C.

Another series has as its system Bacillus subtilis. The experiment in a line: MIC, microbroth dilution. The conditions noted are these: planktonic, 18 hours.
For the next series, the system named is S. capitis. Put plainly: MIC, microbroth dilution. The conditions noted are these: planktonic, 18 hours.
For the next series, the system named is human erythrocytes. It is filed as cell-based. The text has this: The detergent Tween was used as a positive control, causing 100% lysis of RBCs.
In a further series the test system is S. epidermidis. The settings on record: planktonic, 18 hours.
The test system of a further series is bacterial cells. Put plainly: Membrane potential (BacLight kit, DiOC2 red/green fluorescence). It is filed as cell-based. The settings on record: 25 μg/ml; after 5 minutes.
Series [3] is described as follows: Preliminary in vivo toxicity in rats. The settings on record: 1.5 mg/kg and 3 mg/kg, single injection into a tail vein, observed over several days. Here is the method: In order to assess the toxicity of the antibacterial peptide interferors in vivo, eight germ-free fisher male and female rats, weighing approximately ±350 grams were injected with peptide interferor C30 in buffer A: histidine-acetate(pH 6.5) and buffer B phosphate buffer (pH 6.5). Two rats were injected with a concentration of 1.5 mg/kg and two with a concentration of 3 mg/kg. These were single non repeatable injections into a tail vein.

A further series deals with E. faecalis. The settings on record: E. faecalis ATCC 19433; planktonic; 18 hours.

Description for Bacillus subtilis: (§1) Bacteria were grown in a shaking incubator at 37° C. and 160rpm in 50 ml BHI , using individual colonies retrieved from a fresh overnight TSA-sheep blood plate. The cultures were grown to a density of approximately 1×10^8cells/ml and then diluted to 5×10^5 cells/ml in CAMHB (Mc Farland 0.5). Each well contained 100p.I (50p.I of peptide containing MHB plus 50 μl inoculum). The final cell density was 1×10^5 to 5×10^5/ml. After addition of the cell suspension, plates were incubated at 37° C. for 18 to 24 hours. The optical density at 590 nm (OD590) of each well was measured after 5 seconds of shaking the plate using Perkin Elmer spectrophotometer (1420 Multilabel Counter Vicotr 3). […] Each well, where no growth was observed, was also plated on TSA-sheep blood agar plates, incubated at 37° C. overnight and visually inspected.
Description for Corynebacterium: as §1
(§2) A microbroth dilution method was used with twofold serial dilutions in CAMHB (according to EMEA guidelines) was used for screening of peptide activity, with concentrations ranging from 0.3 μg/mIto 200 μg/ml.
Description for E. faecalis: as §1, §2
Description for S. capitis: as §1
Description for S. epidermidis: as §1, §2

In the case of RKLLFNLGSRNGIVIVATTR [F9], the “biofilm formation (metabolic activity compared to control)” value with Candida albicans SC5314 [1] is on record as “significant reduction in biofilm formation”. The “attachment to polyurethane devices” value in the series with Candida albicans SC5314 [2] was 2.18 ±0.12 logio CFU/catheter fragment.
RILLGLIRRGSRILLGLIRR [C30]: the “activity against the genus Corynebacterium” value with Corynebacterium was “active against the genus Corynebacterium”. For the same sequence, the MIC entry against Bacillus subtilis (Bacillus subtilis ATCC 6051) is “Bacillus subtilis ATCC 6051: 1.5 μg/ml”; in the series on Bacillus subtilis (Bacillus subtilis IP 5832), “Bacillus subtilis IP 5832: 6 μg/ml”; in the series with S. capitis, “S. capitis: 1.5 μg/ml”; with S. epidermidis (S101) it was “S101: 1.5 μg/ml”; in the series with S. epidermidis (S103), “S103: 1.5 μg/ml”; against S. epidermidis (S104), “S104: 1.5 μg/ml”. In addition, the MIC result with S. epidermidis (S109) is reported as “S109: 3 μg/ml”; against S. epidermidis (S. epidermidis ATCC 13228) it was “S. epidermidis ATCC 13228: 1.5 μg/ml”; in the series with E. faecalis it was “E. faecalis ATCC 19433: 6 μg/ml”. Further, in the series with human erythrocytes, the “HD50 (concentration at which 50% of red blood cells are lysed)” value was 25 to 50 µg/mL. Moreover, the “membrane potential (MP) change” value with bacterial cells is “full depolarization of the MP”. Further, the “mortality and side effects” value in series [3] is recorded as “no mortality nor any other side effects were apparently visible”.
